Results published in ChEMBL document CHEMBL3727357, “Compositions and methods for inhibiting g protein signaling” (2010).
Activity calls are given as the source filed them. No cut-off for these calls is given here.

Assays:
[1] = target: T1, Guanine nucleotide-binding protein G(I)/G(S)/G(T) subunit beta-1/gamma-2 (Homo sapiens, UniProt P62873+P59768); assay: (§1) Inhibition of SIGKAFKILGYPDYD binding to biotinylated Gbeta1gamma2 (unknown origin) incubated for 1 hr by phage ELISA; format: protein-complex assay
Target sequence in this assay (P59768 2-71 partner limits assumed): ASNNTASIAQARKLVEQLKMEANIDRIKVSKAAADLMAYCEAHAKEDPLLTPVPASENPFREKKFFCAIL
Target sequence in this assay (P62873 2-340 limits assumed): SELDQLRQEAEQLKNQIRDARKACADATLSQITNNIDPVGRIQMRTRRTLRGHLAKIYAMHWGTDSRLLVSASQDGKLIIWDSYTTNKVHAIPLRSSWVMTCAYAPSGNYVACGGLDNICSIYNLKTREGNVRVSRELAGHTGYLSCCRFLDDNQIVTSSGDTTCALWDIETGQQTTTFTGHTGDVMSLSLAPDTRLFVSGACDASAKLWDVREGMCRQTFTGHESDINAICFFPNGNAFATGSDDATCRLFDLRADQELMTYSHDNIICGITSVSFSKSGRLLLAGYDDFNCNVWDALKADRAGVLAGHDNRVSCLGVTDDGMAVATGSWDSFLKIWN

[2] = target: T1, Guanine nucleotide-binding protein G(I)/G(S)/G(T) subunit beta-1/gamma-2; assay: Inhibition of SIGKAFKILGYPDYD binding to biotinylated Gbeta1gamma2 (unknown origin) at 300 uM incubated for 1 hr by phage ELISA; format: protein-complex assay
Target sequence in this assay (P59768 2-71 partner limits assumed): as the sequence (P59768 2-71 partner limits assumed) above
Target sequence in this assay (P62873 2-340 limits assumed): as the sequence (P62873 2-340 limits assumed) above

[3] = target: T1, Guanine nucleotide-binding protein G(I)/G(S)/G(T) subunit beta-1/gamma-2; assay: Inhibition of biotinylated Gbeta1gamma2 (unknown origin)-mediated PLCbeta3 activation incubated for 16 hrs; format: protein-complex assay
Target sequence in this assay (P59768 2-71 limits assumed): as the sequence (P59768 2-71 partner limits assumed) above
Target sequence in this assay (P62873 2-340 limits assumed): as the sequence (P62873 2-340 limits assumed) above

[4] = system: Mus musculus; assay: Downregulation of GRK2 expression in […] mouse acute model of heart failure at 100 mg/kg, ip qd administered for 7 days by immunoblot analysis; format: functional, organism-based
[5] = target: Mu-type opioid receptor (Homo sapiens) (UniProt P35372); assay: Inhibition of human Gbetagamma-dependent mu opioid receptor-mediated PLC activation expressed in CHO cells assessed as reduction of DAMGO-mediated total inositol phosphate production at 10 uM after 30 mins by scintillation counting analysis in presence of [3H]inositol; format: functional, cell-based
Chain of Mu-type opioid receptor (Homo sapiens) (P35372 whole entry): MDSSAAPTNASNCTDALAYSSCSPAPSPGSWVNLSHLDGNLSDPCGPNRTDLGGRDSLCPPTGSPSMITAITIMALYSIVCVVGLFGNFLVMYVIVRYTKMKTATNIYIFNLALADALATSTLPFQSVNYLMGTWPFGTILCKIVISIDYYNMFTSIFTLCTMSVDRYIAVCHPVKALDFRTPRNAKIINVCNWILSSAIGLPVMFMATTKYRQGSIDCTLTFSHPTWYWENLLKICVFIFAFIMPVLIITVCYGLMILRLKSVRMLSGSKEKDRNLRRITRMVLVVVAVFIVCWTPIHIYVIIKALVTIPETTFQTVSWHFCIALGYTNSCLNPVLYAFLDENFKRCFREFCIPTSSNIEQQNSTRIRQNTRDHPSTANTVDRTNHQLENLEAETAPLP

[6] = system: Neutrophil; assay: Antiinflammatory activity in primary human neutrophils assessed as inhibition of fMLP-stimulated chemotaxis at 10 uM after 1 hr by Boyden chamber method; format: functional, cell-based
[7] = system: Mus musculus; assay: Toxicity in C57/B16 mouse assessed as effect on cardiac function at 100 mg/kg, ip qd administered for 7 days by conscious echocardiography; format: organism-based; settings: in vivo, 168 h
[8] = organism: Mus musculus; assay: Inhibition of Gbetagamma in mouse cardiomyocytes assessed as reduction of agonist-stimulated beta adrenergic receptor-mediated GRK2 recruitment to membrane; format: cell-based
[9] = target: T1, Guanine nucleotide-binding protein G(I)/G(S)/G(T) subunit beta-1/gamma-2; assay: Inhibition of biotinylated Gbeta1gamma2 (unknown origin) binding to PLCbeta2 at 10 uM incubated for 16 hrs; format: protein-complex assay
Target sequence in this assay (P59768 2-71 partner limits assumed): as the sequence (P59768 2-71 partner limits assumed) above
Target sequence in this assay (P62873 2-340 limits assumed): as the sequence (P62873 2-340 limits assumed) above

[10] = system: HL-60; assay: Binding affinity to Gbetagamma in differentiated human HL60 cells assessed as inhibition of fMLP-stimulated superoxide production at 10 uM preincubated for 10 mins followed by nitro blue tetrazolium addition for 5 mins and fMLP addition for 30 mins by NADPH oxidase assay; format: cell-based
[11] = organism: Mus musculus; assay: Inhibition of Gbetagamma-GRK2 interaction in mouse cardiomyocytes assessed as increase in contractility; format: cell-based
[12] = system: Mus musculus; assay: Potentiation of morphine-induced antinociceptive activity in PLCbeta3-deficient ICR mouse at 100 nmol, icv after 20 mins by tail flick test; format: functional, organism-based
[13] = system: HL-60; assay: Binding affinity to Gbetagamma in human HL60 cells assessed as inhibition of fMLP-stimulated GFP-PHAkt translocation to plasma membrane at 10 uM incubated for 5 mins prior to fMLP stimulation by Western blot analysis; format: cell-based
[14] = system: Mus musculus; assay: Antinociceptive activity in ICR mouse at 100 nmol, icv after 20 mins by tail flick test relative to control; format: functional, organism-based
[15] = system: CHO; assay: Effect on total inositol phosphate production in CHO cells expressing human mu opioid receptor at 10 uM after 30 mins by scintillation counting analysis in presence of [3H]inositol; format: ADME, cell-based, Cricetulus griseus; settings: chinese hamster, 0.5 h
[16] = system: CHO; assay: Inhibition of human Gbetagamma-dependent kappa opioid receptor-mediated PLC activation expressed in CHO cells assessed as reduction of U50,488-mediated total inositol phosphate production at 10 uM after 30 mins by scintillation counting analysis in presence of [3H]inositol; format: cell-based
[17] = target: T1, Guanine nucleotide-binding protein G(I)/G(S)/G(T) subunit beta-1/gamma-2; assay: Inhibition of biotinylated Gbeta1gamma2 (unknown origin) binding to PLCbeta3 at 10 uM incubated for 16 hrs; format: protein-complex assay
Target sequence in this assay (P59768 2-71 partner limits assumed): as the sequence (P59768 2-71 partner limits assumed) above
Target sequence in this assay (P62873 2-340 limits assumed): as the sequence (P62873 2-340 limits assumed) above

[18] = system: HL-60; assay: Antiinflammatory activity in differentiated human HL60 cells assessed as inhibition of fMLP-stimulated chemotaxis by transwell assay; format: functional, cell-based
[19] = system: HL-60; assay: Effect on fMLP-stimulated ERK1/2 phosphorylation in human HL60 cells at 10 uM incubated for 5 mins prior to fMLP stimulation by Western blot analysis; format: functional, cell-based
[20] = system: HL-60; assay: Binding affinity to Gbetagamma in human HL60 cells assessed as inhibition of fMLP-stimulated GRK2 translocation at 10 uM incubated for 5 mins prior to fMLP stimulation by Western blot analysis; format: cell-based
[21] = system: Mus musculus; assay: Inhibition of isoproterenol-mediated interstitial cardiac fibrosis in C57/B16 mouse acute model of heart failure at 100 mg/kg, ip qd administered for 7 days by post-mortem test; format: functional, organism-based
[22] = system: Mus musculus; assay: Increase in survival of cardiac-specific calsequestrin mouse with dilated cardiomyopathy at 100 mg/kg, ip qd in presence of beta adrenergic receptor blocker metoprolol; format: functional, organism-based; settings: Heart
[23] = system: Neutrophil; assay: Antiinflammatory activity in primary human neutrophils assessed as inhibition of GM-CSF-stimulated chemotaxis at 1 uM after 1 hr by Boyden chamber method; format: functional, cell-based
[24] = organism: Mus musculus; assay: Inhibition of Gbetagamma-mediated GRK2 recruitment in mouse cardiomyocytes assessed as cAMP generation at 10 uM treated for 5 mins; format: functional, cell-based
[25] = system: CHO; assay: Reduction of DPDPE-mediated total inositol phosphate production in CHO cells expressing human mu opioid receptor at 10 uM after 30 mins by scintillation counting analysis in presence of [3H]inositol; format: functional, cell-based; settings: Cricetulus griseus
[26] = system: CHO; assay: Reduction of U50,488-mediated total inositol phosphate production in CHO cells expressing human mu opioid receptor at 10 uM after 30 mins by scintillation counting analysis in presence of [3H]inositol; format: functional, cell-based; settings: Cricetulus griseus
[27] = system: Mus musculus; assay: Increase in survival of cardiac-specific calsequestrin mouse with dilated cardiomyopathy at 100 mg/kg, ip qd; format: functional, organism-based; settings: Heart
[28] = system: Mus musculus; assay: Inhibition of isoproterenol-mediated decrease in cardiac morphology in C57/B16 mouse acute model of heart failure at 100 mg/kg, ip qd administered for 7 days by post-mortem test; format: functional, organism-based
[29] = organism: Mus musculus; assay: Inhibition of Gbetagamma-GRK2 interaction in mouse cardiomyocytes assessed as increase in contractility in presence of beta adrenergic receptor antagonist propranolol; format: cell-based
[30] = target: Mu-type opioid receptor (Homo sapiens) (UniProt P35372); assay: Inhibition of human Gbetagamma-dependent mu opioid receptor-mediated PLC activation expressed in CHO cells assessed as reduction of morphine-mediated total inositol phosphate production at 10 uM after 30 mins by scintillation counting analysis in presence of [3H]inositol; format: functional, cell-based
[31] = system: Mus musculus; assay: Improvement of cardiac dysfunction in cardiac-specific calsequestrin mouse with dilated cardiomyopathy at 100 mg/kg, ip qd; format: functional, organism-based; settings: Heart
[32] = organism: Mus musculus; assay: Inhibition of Gbetagamma-GRK2 interaction in mouse cardiomyocytes assessed as increase in isoproterenol-induced contractility; format: cell-based
[33] = Reduction of membrane associated GRK2 level in mouse cardiomyocytes; format: ADME, cell-based; settings: cardiomyocyte
[34] = organism: Mus musculus; assay: Inhibition of Gbetagamma-mediated GRK2 recruitment in mouse cardiomyocytes assessed as isoproterenol-induced cAMP generation at 10 uM pretreated for 5 mins followed by isoproterenol induction measured after 15 mins; format: functional, cell-based
[35] = system: HL-60; assay: Binding affinity to Gbetagamma in human HL60 cells assessed as inhibition of fMLP-stimulated Ca2+ release at 10 uM incubated for 5 mins prior to fMLP stimulation by Fura2-AM dye-based assay; format: cell-based
[36] = system: Mus musculus; assay: Inhibition of isoproterenol-mediated decrease in cardiac function in C57/B16 mouse acute model of heart failure at 100 mg/kg, ip qd administered for 7 days by conscious echocardiography; format: functional, organism-based
[37] = system: Mus musculus; assay: Toxicity in C57/B16 mouse assessed as overt toxic effect at 250 mg/kg/day administered for 2 weeks; format: organism-based; settings: in vivo, 336 h
[38] = target: Delta-type opioid receptor (Homo sapiens) (UniProt P41143); assay: Inhibition of human Gbetagamma-dependent delta opioid receptor-mediated PLC activation expressed in CHO cells assessed as reduction of Deltorphin 2-mediated total inositol phosphate production at 10 uM after 30 mins by scintillation counting analysis in presence of [3H]inositol; format: functional, cell-based
Chain of Delta-type opioid receptor (Homo sapiens) (P41143 whole entry): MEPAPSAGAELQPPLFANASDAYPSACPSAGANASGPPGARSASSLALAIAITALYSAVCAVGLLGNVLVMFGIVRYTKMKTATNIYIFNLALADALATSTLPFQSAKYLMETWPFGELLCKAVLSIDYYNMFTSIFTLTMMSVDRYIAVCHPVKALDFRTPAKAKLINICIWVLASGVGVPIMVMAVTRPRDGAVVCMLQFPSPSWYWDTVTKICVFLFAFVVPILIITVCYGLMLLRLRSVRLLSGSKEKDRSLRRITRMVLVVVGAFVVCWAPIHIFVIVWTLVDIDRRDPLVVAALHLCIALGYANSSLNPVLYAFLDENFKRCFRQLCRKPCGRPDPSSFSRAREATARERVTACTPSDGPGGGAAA

[39] = organism: Mus musculus; assay: Inhibition of Gbetagamma-GRK2 interaction in mouse cardiomyocytes assessed as increase in isoproterenol-induced contractility in presence of beta adrenergic receptor antagonist propranolol; format: cell-based
[40] = system: Mus musculus; assay: Potentiation of morphine-induced antinociceptive activity in ICR mouse assessed as morphine ED50 at 100 mg/kg, ip after 20 mins by tail flick test (reference value: 5 mg/kg); format: functional
[41] = system: Mus musculus; assay: Improvement of cardiac dysfunction in cardiac-specific calsequestrin mouse with dilated cardiomyopathy at 100 mg/kg, ip qd in presence of beta adrenergic receptor blocker metoprolol; format: functional, organism-based; settings: Heart
[42] = system: Mus musculus; assay: Toxicity in C57/B16 mouse assessed as effect on cardiac morphology at 100 mg/kg, ip qd administered for 7 days by post-mortem test; format: organism-based; settings: in vivo, 168 h
[43] = system: HL-60; assay: Antiinflammatory activity in differentiated human HL60 cells assessed as inhibition of fMLP-stimulated cell migration at 10 uM after 1 hr by Boyden chamber method; format: functional, cell-based
[44] = target: Delta-type opioid receptor (Homo sapiens) (UniProt P41143); assay: Inhibition of human Gbetagamma-dependent delta opioid receptor-mediated PLC activation expressed in CHO cells assessed as reduction of DPDPE-mediated total inositol phosphate production at 10 uM after 30 mins by scintillation counting analysis in presence of [3H]inositol; format: functional, cell-based
[45] = system: HEK293; assay: Effect on carbachol-dependent Ca2+ release in HEK293 cells expressing M3 muscarinic receptor at 10 uM; format: functional, cell-based; settings: Homo sapiens
[46] = system: Neutrophil; assay: Antiinflammatory activity in primary human neutrophils assessed as inhibition of IL8-stimulated chemotaxis at 10 uM after 1 hr by Boyden chamber method; format: functional, cell-based
[47] = Effect on differentiated human HL60 cell motility at 10 uM after 1 hr by Boyden chamber method; format: ADME, cell-based; settings: hl-60, 1 h
[48] = system: HL-60; assay: Binding affinity to Gbetagamma in differentiated human HL60 cells assessed as inhibition of fMLP-stimulated Rac1 activation at 10 uM preincubated for 10 mins followed by fMLP challenge for 90 secs by Western blot analysis; format: cell-based
[49] = target: Guanine nucleotide-binding protein G(I)/G(S)/G(T) subunit beta-1/gamma-2 (Homo sapiens, UniProt P59768+P62873); assay: as §1; format: protein-complex assay
Chain of Guanine nucleotide-binding protein G(I)/G(S)/G(T) subunit beta-1/gamma-2 (Homo sapiens, UniProt P59768+P62873) (P59768 2-71 partner limits assumed): as the sequence (P59768 2-71 partner limits assumed) above
Chain of Guanine nucleotide-binding protein G(I)/G(S)/G(T) subunit beta-1/gamma-2 (Homo sapiens, UniProt P59768+P62873) (P62873 2-340 limits assumed): as the sequence (P62873 2-340 limits assumed) above

Q: For Cc1c2ccc(=O)cc-2oc2cc(O)ccc12, which inhibition [1] is on record?
A: The inhibition was “inactive”.

Q: What about the inhibition [2] of the same compound?
A: The inhibition was “inactive”.

Q: What does the source list for O=c1cc2oc3cc(O)c(O)cc3c(-c3ccccc3O)c-2cc1O?
A: inhibition [1]: inactive; inhibition [2]: inactive

Q: For O=C1c2ccccc2C(=O)c2c(Nc3cc4c5c(ccc6c7ccc8c9c(cc(Nc%10cccc%11c%10C(=O)c%10ccccc%10C%11=O)c(c3c56)c97)-c3ccccc3C8=O)C(=O)c3ccccc3-4)cccc21, which IC50 [3] is on record?
A: The IC50 was “Not Active”.

Q: What does the source list for O=C(O)C1CCCCC1c1c2ccc(=O)c(O)c-2oc2c(O)c(O)ccc12 (stereo not given)?
A: Activity [4]: Active; inhibition [5]: Active; inhibition [6]: Active; Activity [7]: Non-toxic; inhibition [8]: Active; inhibition [9]: Active; inhibition [10]: Active; inhibition [11]: Active; Activity [12]: inactive; inhibition [13]: Active; Activity [14]: inactive; Activity [15]: Non-toxic; inhibition [16]: inactive; inhibition [17]: Active; inhibition [18]: inactive; Activity [19]: inactive; inhibition [20]: Active; inhibition [21]: Active; Activity [22]: Active; inhibition [23]: inactive; inhibition [24]: Active; Activity [25]: inactive; Activity [26]: inactive; Activity [27]: Active; inhibition [28]: Active; inhibition [29]: inactive; inhibition [30]: Active; Activity [31]: Active; inhibition [32]: Active; Activity [33]: Non-toxic; inhibition [34]: Active; inhibition [35]: Active; inhibition [36]: Active; Activity [37]: Non-toxic; inhibition [38]: inactive; inhibition [39]: inactive; ED50 [40]: 1.3 mg/kg; Activity [41]: Active; Activity [42]: Non-toxic; inhibition [43]: Active; inhibition [44]: inactive; Activity [45]: inactive; inhibition [46]: Active; Activity [47]: Non-toxic; inhibition [48]: Active

Q: Which inhibition [1] does the source give for Cc1c2cc(O)c(=O)cc-2oc2cc(O)c(O)cc12 here?
A: The inhibition was “inactive”.

Q: What about the inhibition [2] of the same compound?
A: Its inhibition is “inactive”.

Q: Which IC50 [49] does the source give for O=C(O)c1cccc2cccc(-c3c4ccc(=O)c(O)c-4oc4c(O)c(O)ccc34)c12 here?
A: Its IC50 is 130 nM.

Q: Which results are given for O=C(O)C1CC23C(Cl)C(Cl)C(Cl)C(Cl)C2(CC1c1c2ccc(=O)c(O)c-2oc2c(O)c(O)ccc12)C3(Cl)Cl (stereo not given)?
A: inhibition [13]: Active; Activity [19]: inactive; inhibition [35]: Active

Q: Which inhibition [11] does the source give for O=C(O)C1CCCCC1c1c2ccc(=O)cc-2oc2cc(O)ccc12 (stereo not given) here?
A: Its inhibition is “inactive”.

Q: What about the inhibition [32] of the same compound?
A: Its inhibition is “inactive”.

Q: What about the inhibition [43] of the same compound?
A: Its inhibition is “inactive”.

Q: And the inhibition [48]?
A: Its inhibition is “inactive”.
